Laboratory results: patent US12532889B2, “Herbicidal compositions comprising glufosinate” (BASF SE, priority 2023, dated 2026)
Several values for one entry are separate records, joined by “and”; a condition that tells them apart may be missing. Equal entries are not always repeated.

Key:
Assay in all cases: Post-emergence application in field trials (Example A)
Type in all cases: in vivo
EPHHI (Euphorbia hirta) = details: Table 1.2; EPHHI height 25 cm; B-2 solo 400 g ai/ha; 14 DAT; water volume 100 l/ha; 0.5% v/v MSO
Description: (§1) In the examples below, using the method of S. R. Colby (1967) “Calculating synergistic and antagonistic responses of herbicide combinations”, Weeds 15, p. 22ff., the value E, which is expected if the activity of the individual active compounds is only additive, was calculated:
(§2) [formula] • where • X=percent activity using active herbicide A at an application rate a; • Y=percent activity using active herbicide B (e.g. glufosinate) at an application rate b; • E=expected activity (in %) by A+B at application rates a+b.
(§3) If the value found experimentally is higher than the value E calculated according to Colby, a synergistic effect is present.
(§4) On field test sites, natural weed infestation or seeded weeds were treated post-emergence of the weeds.
(§5) In the field trials, the weeds were treated as indicated below.
(§6) In the following experiments, the herbicidal activity for the individual herbicidal compositions (solo and mixture applications) was assessed at the indicated days after treatment (DAT). The assessments for the damage on undesired weeds caused by the composition was carried out using a scale from 0 to 100%, compared to the untreated control plants. Here, 0 means no damage and 100 means complete destruction of the plants.
(§7) Post-emergence application of Herbicide A-1 (A-1) and glufosinate ammonium (B-2) in Field Trials:
(§8) Herbicide A-1 (50 g/l), glufosinate ammonium (200 g/l) and optional herbicide C were, together with addition of 0.5% v/v MSO (methylated seed oil) as adjuvant, formulated in water as distribution medium as indicated and sprayed with commercial flat fan nozzles.

[1] = test system: SPCHI (Spermacoce hispida); details: Table 1.2; SPCHI height 25 cm; B-2 solo 400 g ai/ha; 14 DAT; water volume 100 l/ha; 0.5% v/v MSO
Description: as §1, §2, §3, §4, §5, §6, §7, §8

[2] = test system: CYPDI (Cyperus difformis); details: CYPDI height 25 cm
Description: as §1, §2, §3, §4, §5, §6, §7, §8

[3] = test system: DIGIN = TRCIN (Digitaria insularis)
Description: as §1, §2, §3, §4, §5, §6, §7, §8

ELEIN (Eleusine indica) = test system: ELEIN (Eleusine indica)
Description: as §1, §2, §3, §4, §5, §6, §7, §8

[4] = test system: DIGSA (Digitaria sanguinalis); details: for % Herbicidal activity: B-2 400 g ai/ha, height 10-15 cm; for % herbicidal activity: Table 4.1, DIGSA height 2-8 cm, water 140 l/ha
Description: as §1, §2, §3, §4, §5, §6

ZEAMX (Zea mays) = test system: ZEAMX (Zea mays)
Description: as §1, §2, §3, §4, §5, §6

BIDPI (Bidens pilosa) = details: Table 1.14; BIDPI height 20-45 cm; A-1 50, B-2 400 g ai/ha; 21 DAT; water 100 l/ha
Description: as §1, §2, §3, §4, §5, §6

[5] = test system: HORVS (Hordeum vulgare (spring barley)); details: Table 3.1, HORVS volunteer barley, growth stage 22-24, height 32-35 cm, 28 DAT, water 100 l/ha
Description: as §1, §2, §3, §4, §5, §6

[6] = test system: HORVW (Hordeum vulgare (winter barley)); details: B-2 400 g ai/ha, growth stage 23-29, height 20-25 cm
Description: as §1, §2, §3, §4, §5, §6

[7] = test system: LOLMU (Lolium multiflorum)
Description: as §1, §2, §3, §4, §5, §6

[8] = test system: ECHCG (Echinocloa crus-galli); details: B-2 400 g ai/ha, growth stage 23-30, height 15-20 cm
Description: as §1, §2, §3, §4, §5, §6

[9] = 7 DAT, B-2 400 g ai/ha, growth stage 22-25, height 20-25 cm

SMILES: CP(=O)(O)CCC(N)C(=O)O (stereo not shown) [B-2, glufosinate-ammonium]
- % herbicidal activity (EPHHI (Euphorbia hirta)): 20%
- % herbicidal activity [1]: 20%
- % herbicidal activity ([2]; Table 1.15, A-1 25, B-2 400 g ai/ha, 21 DAT, water 100 l/ha): 10%
- % herbicidal activity ([2]; Table 1.2, B-2 solo 400 g ai/ha, 14 DAT, water volume 100 l/ha, 0.5% v/v MSO): 20%
- % herbicidal activity ([3]; Table 1.13, DIGIN height 20-30 cm, A-1 50, B-2 400 g ai/ha, 21 DAT, water 100 l/ha): 20%
- % herbicidal activity ([3]; Table 1.17, DIGIN height 20-30 cm, A-1 50, B-2 400 g ai/ha, 21 DAT, water 200 l/ha): 30%
- % herbicidal activity ([3]; Table 1.19, DIGIN height 20-30 cm, A-1 50, B-2 400 g ai/ha, 21 DAT, water 200 l/ha): 30%
- % herbicidal activity ([3]; Table 1.20, DIGIN height 60-80 cm, A-1 50, B-2 400 g ai/ha, 21 DAT, water 200 l/ha): 57%
- % herbicidal activity ([3]; Table 1.22, DIGIN in tillering stage, height 5-15 cm, A-1 50, B-2 400 g ai/ha, 21 DAT, water 200 l/ha): 35%
- % herbicidal activity ([3]; Table 1.22, DIGIN in tillering stage, height 5-15 cm, A-1 50, B-2 600 g ai/ha, 21 DAT, water 200 l/ha): 70%
- % herbicidal activity ([3]; Table 1.23, DIGIN growth stage 16-18, height 15-25 cm, A-1 50, B-2 400 g ai/ha, 21 DAT, water 200 l/ha): 55%
- % herbicidal activity ([3]; Table 1.23, DIGIN growth stage 16-18, height 15-25 cm, A-1 50, B-2 600 g ai/ha, 21 DAT, water 200 l/ha): 65%
- % herbicidal activity ([3]; Table 1.24, DIGIN growth stage 67, height 100 cm, A-1 50, B-2 400 g ai/ha, 21 DAT, water 200 l/ha): 17%
- % herbicidal activity ([3]; Table 1.24, DIGIN growth stage 67, height 100 cm, A-1 50, B-2 600 g ai/ha, 21 DAT, water 200 l/ha): 37%
- % herbicidal activity ([3]; Table 1.25, DIGIN in tillering stage, height 8-20 cm, A-1 50, B-2 400 g ai/ha, 21 DAT, water 200 l/ha): 25%
- % herbicidal activity ([3]; Table 1.25, DIGIN in tillering stage, height 8-20 cm, A-1 50, B-2 600 g ai/ha, 21 DAT, water 200 l/ha): 43%
- % herbicidal activity ([3]; Table 1.26, DIGIN in tillering stage, height 50-70 cm, A-1 50, B-2 400 g ai/ha, 21 DAT, water 200 l/ha): 15%
- % herbicidal activity ([3]; Table 1.26, DIGIN in tillering stage, height 50-70 cm, A-1 50, B-2 600 g ai/ha, 21 DAT, water 200 l/ha): 15%
- % herbicidal activity ([3]; Table 1.3, DIGIN height 60-80 cm, A-1 25, B-2 400 g ai/ha, 14 DAT, water 200 l/ha): 68%
- % herbicidal activity ([3]; Table 1.3, DIGIN height 60-80 cm, A-1 50, B-2 400 g ai/ha, 14 DAT, water 200 l/ha): 68%
- % herbicidal activity ([3]; Table 1.5, DIGIN growth stage 16-18, height 15-25 cm, A-1 50, B-2 400 g ai/ha, 14 DAT, water 200 l/ha): 60%
- % herbicidal activity ([3]; Table 1.5, DIGIN growth stage 16-18, height 15-25 cm, A-1 50, B-2 600 g ai/ha, 14 DAT, water 200 l/ha): 70%
- % herbicidal activity ([3]; Table 1.7, DIGIN height 50-70 cm, tillering stage, B-2 solo 600 g ai/ha, 14 DAT, water volume 200 l/ha, 0.5% v/v MSO): 17%
- % herbicidal activity (ELEIN (Eleusine indica); Table 1.10, ELEIN growth stage 23-25, height 3-5 cm, A-1 25, B-2 400 g ai/ha, 20 DAT, water 200 l/ha): 35%
- % herbicidal activity (ELEIN (Eleusine indica); Table 1.1, ELEIN growth stage 24, B-2 solo 400 g ai/ha, 14 DAT, water volume 100 l/ha, 0.5% v/v MSO): 12%
- % herbicidal activity (ELEIN (Eleusine indica); Table 1.14, ELEIN growth stage 24, A-1 25, B-2 400 g ai/ha, 21 DAT, water 100 l/ha): 0%
- % herbicidal activity (ELEIN (Eleusine indica); Table 1.15, ELEIN height 25 cm, A-1 25, B-2 400 g ai/ha, 21 DAT, water 100 l/ha): 10%
- % herbicidal activity (ELEIN (Eleusine indica); Table 1.15, ELEIN height 25 cm, A-1 50, B-2 400 g ai/ha, 21 DAT, water 100 l/ha): 10%
- % herbicidal activity (ELEIN (Eleusine indica); Table 1.18, ELEIN growth stage 24, A-1 25, B-2 400 g ai/ha, 21 DAT, water 200 l/ha): 0%
- % herbicidal activity (ELEIN (Eleusine indica); Table 1.18, ELEIN growth stage 24, A-1 50, B-2 400 g ai/ha, 21 DAT, water 200 l/ha): 0%
- % herbicidal activity (ELEIN (Eleusine indica); Table 1.21, ELEIN growth stage 24, A-1 25, B-2 400 g ai/ha, 21 DAT, water 200 l/ha): 0%
- % herbicidal activity (ELEIN (Eleusine indica); Table 1.21, ELEIN growth stage 24, A-1 50, B-2 400 g ai/ha, 21 DAT, water 200 l/ha): 0%
- % herbicidal activity (ELEIN (Eleusine indica); Table 1.4, ELEIN growth stage 24, A-1 50, B-2 400 g ai/ha, 14 DAT, water 200 l/ha): 18%
- % herbicidal activity (ELEIN (Eleusine indica); Table 1.9, ELEIN growth stage 23-25, height 3-5 cm, A-1 25, B-2 400 g ai/ha, 20 DAT, water 100 l/ha): 20%
- % Herbicidal activity ([4]; 20 DAT, growth stage 21-22): 20%
- % Herbicidal activity ([4]; 21 DAT, growth stage 22): 75%
- % Herbicidal activity ([4]; 41 DAT, growth stage 22): 55%
- % herbicidal activity ([4]; A-1 12.5, B-2 655 g ai/ha, 21 DAT): 49%
- % herbicidal activity ([4]; A-1 25, B-2 655 g ai/ha, 21 DAT): 49%
- % herbicidal activity ([4]; A-1 50, B-2 655 g ai/ha, 21 DAT): 49%
- % herbicidal activity (ZEAMX (Zea mays); 7 DAT, B-2 400 g ai/ha, growth stage 15-16, height 50-60 cm): 75%
- % Herbicidal activity (ZEAMX (Zea mays); 21 DAT, B-2 400 g ai/ha, growth stage 15-16, height 27-33 cm): 65%
- % herbicidal activity (ZEAMX (Zea mays); 21 DAT, B-2 400 g ai/ha, growth stage 15-16, height 50-60 cm): 75%
- % herbicidal activity (ZEAMX (Zea mays); 28 DAT, B-2 400 g ai/ha, growth stage 15-16, height 50-60 cm): 40%
- % herbicidal activity (ZEAMX (Zea mays); Table 1.12, ZEAMX volunteer corn, A-1 50, B-2 400 g ai/ha, 21 DAT, water 100 l/ha): 47%
- % herbicidal activity (BIDPI (Bidens pilosa)): 55%
- % herbicidal activity ([5]; A-1 12.5, B-2 500 g ai/ha): 15%
- % herbicidal activity ([5]; A-1 18, B-2 500 g ai/ha): 15%
- % Herbicidal activity ([6]; 7 DAT): 60%
- % Herbicidal activity ([6]; 21 DAT): 30%
- % herbicidal activity ([6]; 21 DAT): 40%
- % Herbicidal activity [7, 9]: 70%
- % herbicidal activity [7, 9]: 50%
- % herbicidal activity ([7]; 21 DAT, B-2 400 g ai/ha, growth stage 22-25, height 20-25 cm): 30%
- % Herbicidal activity ([7]; 28 DAT, B-2 400 g ai/ha, growth stage 22-25, height 20-25 cm): 40%
- % herbicidal activity ([7]; Table 1.28, LOLMU growth stage 11-23, height 5-10 cm, A-1 25, B-2 400 g ai/ha, 28 DAT, water 200 l/ha): 68%
- % Herbicidal activity ([8]; 7 DAT): 60%
- % herbicidal activity ([8]; 7 DAT): 40% and 60%
- % Herbicidal activity ([8]; 21 DAT): 60%
- % herbicidal activity ([8]; 21 DAT): 60%
- % Herbicidal activity ([8]; 28 DAT): 60%
